Values after ≈ are worked out from the molar mass of the structure shown. Read-outs that look alike come from different tables or passages of the source.
Tests used:
[1] = Solubility in water, filtrate content measured by HPLC; assay type: physicochemical; conditions: for solubility at 10 h: water, 25 °C, thermodynamic from solid
Method: High Performance Liquid Chromatogram (HPLC) analysis data are collected from Agilent 1260 and the chemical workstation is B.04. The corresponding parameters are as follows: chromatographic column Eclipst XDB-C18, 5 μm, 4.6×250 mm, H-005#, column temperature 25° C., flow rate 0.3 ml/min, mobile phase 13% acetonitrile and 87% water (0.0025M ammonium bicarbonate), wavelength 254 nm, sample size 10 μL and operation duration 20 min.
In 100 mL of water was added 20.0 mg of Form I prepared in preparation example 1 or 20 mg of Form II prepared in example 1, and stirred for 10 hours at 25° C., filtered, the content of the filtrate was directly measured by HPLC.

[2] = Stability test under high temperature and bright light, HPLC purity; assay type: physicochemical; conditions: for Change in value of maximum individual impurity content: increase
Method: High Performance Liquid Chromatogram (HPLC) analysis data are collected from Agilent 1260 and the chemical workstation is B.04. The corresponding parameters are as follows: chromatographic column […] XDB-C18, 5 μm, 4.6×250 mm, H-005#, column temperature 25° C., flow rate 0.3 ml/min, mobile phase 13% acetonitrile and 87% water (0.0025M ammonium bicarbonate), wavelength 254 nm, sample size 10 μL and operation duration 20 min. Form I of TR-701FA prepared in preparation example 1 and Form II of TR-701FA of the present invention were compared in the stability test by being stored for 10 days under conditions of high temperature and bright light. The high temperature was 80° C. and the light was 6,000 lx. HPLC purities and maximum individual impurity contents of the compounds were tested before and after the storage, and the results were shown in Table 3.

[3] = Isothermal adsorption curve (hygroscopicity); assay type: physicochemical; conditions: for hygroscopicity (in words): isothermal adsorption curve
Method: The Isothermal Adsorption Curve data are collected by TA Instruments Q5000 TGA. The instrument control software is Thermal Advantage and the analysis software is Universal Analysis. Generally, take 1 to 10 mg of the sample and place it in a platinum pan, and record weight changes of the sample during the course of the relative humidity changing from 0% to 80% then to 0%. Depending on samples, different adsorption and desorption steps may be used.

[4] = Storage stability at 25° C. and 60% RH; assay type: physicochemical; conditions: stored for 6 months at 25° C. and 60% RH
[5] = aqueous solution or acid solution; cited from earlier work
[6] = cited from earlier work
[7] = 0 day vs 10 days at 80° C. and 6,000 lx
[8] = high temperature (80° C.) and lighting (6,000 lx) for 10 days

| solubility in water (in words) [1] | solubility at 10 h ([1]; stirred 10 hours at 25° C. (room temperature), filtrate by HPLC, read-out: solubility in water) | HPLC purity ([2]; 0 day) | Maximum individual impurity content ([2]; 0 day) | Change in value of maximum individual impurity content [2, 7] | Change in value of HPLC purity ([2]; 0 day vs 10 days at 80° C. and 6,000 lx, positive = decrease) | HPLC purity [2, 8] | Maximum individual impurity content [2, 8] | weight change on isothermal adsorption curve ([3]; relative humidity range of 20% to 80% RH) | solubility at 10 h ([1]; at room temperature, read-out: water solubility) | purity and crystalline form after storage [4] | SMILES | hygroscopicity (in words) [3] | stability in solution (in words) [5] | solubility relative to tedizolid (in words) [6] |
| --- | --- | --- | --- | --- | --- | --- | --- | --- | --- | --- | --- | --- | --- | --- |
| low solubility in water | 118 µg/mL (≈ 262 µM) | 98.7% | 1.3% | 1.2% | 2.1% | 96.6% | 2.5% | approximately 1.56% | – | – | Cn1nnc(-c2ccc(-c3ccc(N4C[C@H](COP(=O)(O)O)OC4=O)cc3F)cn2)n1 [Form I of TR-701FA, (R)-3-(4-(2-(2-methyltetrazol-5-yl)pyridine-5-yl)-3-fluorophenyl)-5-hydroxymethyl oxazolidin-2-onedihydrogenphosphate] | high hygroscopicity | – | – |
| – | – | 98.3% | 1.6% | 0.1% | – | 98.4% | 1.7% | – | 168 µg/mL (≈ 373 µM) | remain unchanged | Cn1nnc(-c2ccc(-c3ccc(N4C[C@H](COP(=O)(O)O)OC4=O)cc3F)cn2)n1 [Form II of TR-701FA, (R)-3-(4-(2-(2-methyltetrazol-5-yl)pyridine-5-yl)-3-fluorophenyl)-5-hydroxymethyl oxazolidin-2-onedihydrogenphosphate] | lower hygroscopicity than the known Form I | – | – |
| – | – | – | – | – | – | – | – | – | – | – | Cn1nnc(-c2ccc(-c3ccc(N4C[C@H](COP(=O)(O)O)OC4=O)cc3F)cn2)n1 [TR-701FA, (R)-3-(4-(2-(2-methyltetrazol-5-yl)pyridine-5-yl)-3-fluorophenyl)-5-hydroxymethyl oxazolidin-2-onedihydrogenphosphate] | – | stable in aqueous solution or acid solution | better solubility than tedizolid |

Reference: patent US10189870B2, “Crystalline form of oxazolidinone antibiotics and preparation method, composition and use thereof” (Hangzhou Pushai Pharmaceutical Technology Co., Ltd., priority 2014, dated 2019)
